Experimental findings from ChEMBL document CHEMBL1938230, “6-Position optimization of tricyclic 4-quinolone-based inhibitors of glycogen synthase kinase-3β: discovery of nitrile derivatives with picomolar potency” (Bioorg Med Chem Lett, 2012) are described below.

In data set [1] the target is T1, Scaffold protein ILK (Homo sapiens) (UniProt Q13418).
T1 sequence (whole entry): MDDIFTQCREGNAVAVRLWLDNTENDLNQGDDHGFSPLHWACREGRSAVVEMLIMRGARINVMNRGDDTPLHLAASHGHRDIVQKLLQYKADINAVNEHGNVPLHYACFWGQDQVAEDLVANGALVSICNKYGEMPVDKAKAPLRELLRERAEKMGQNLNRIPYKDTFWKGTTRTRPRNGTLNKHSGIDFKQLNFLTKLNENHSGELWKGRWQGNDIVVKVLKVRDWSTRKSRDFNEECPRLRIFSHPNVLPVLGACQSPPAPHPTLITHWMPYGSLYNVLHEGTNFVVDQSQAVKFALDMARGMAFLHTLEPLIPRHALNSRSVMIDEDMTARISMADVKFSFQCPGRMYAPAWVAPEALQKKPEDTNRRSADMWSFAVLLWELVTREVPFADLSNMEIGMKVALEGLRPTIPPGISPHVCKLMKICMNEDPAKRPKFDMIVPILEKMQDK
The data set can be described thus: Inhibition of human ILK in HL-60 cells lysate assessed as reduction of labeling of acyl-phosphate ATP probe at 100 nM. The data set is classed as cell-free.

The target of data set [2] is Phosphatidylinositol 4-phosphate 3-kinase C2 domain-containing subunit beta (Homo sapiens) (UniProt O00750). The data set can be described thus: Inhibition of human PIK3C2B in HL-60 cells lysate assessed as reduction of labeling of acyl-phosphate ATP probe at 100 nM. The format is cell-free.
Data set [3] has as its system HL-60. The data set can be described thus: Inhibition of human FYN/SRC/YES in HL-60 cells lysate assessed as reduction of labeling of acyl-phosphate ATP probe at 100 nM.
Data set [4] addresses T2, Mitogen-activated protein kinase kinase kinase 3 (Homo sapiens) (UniProt Q99759).
T2 sequence (whole entry): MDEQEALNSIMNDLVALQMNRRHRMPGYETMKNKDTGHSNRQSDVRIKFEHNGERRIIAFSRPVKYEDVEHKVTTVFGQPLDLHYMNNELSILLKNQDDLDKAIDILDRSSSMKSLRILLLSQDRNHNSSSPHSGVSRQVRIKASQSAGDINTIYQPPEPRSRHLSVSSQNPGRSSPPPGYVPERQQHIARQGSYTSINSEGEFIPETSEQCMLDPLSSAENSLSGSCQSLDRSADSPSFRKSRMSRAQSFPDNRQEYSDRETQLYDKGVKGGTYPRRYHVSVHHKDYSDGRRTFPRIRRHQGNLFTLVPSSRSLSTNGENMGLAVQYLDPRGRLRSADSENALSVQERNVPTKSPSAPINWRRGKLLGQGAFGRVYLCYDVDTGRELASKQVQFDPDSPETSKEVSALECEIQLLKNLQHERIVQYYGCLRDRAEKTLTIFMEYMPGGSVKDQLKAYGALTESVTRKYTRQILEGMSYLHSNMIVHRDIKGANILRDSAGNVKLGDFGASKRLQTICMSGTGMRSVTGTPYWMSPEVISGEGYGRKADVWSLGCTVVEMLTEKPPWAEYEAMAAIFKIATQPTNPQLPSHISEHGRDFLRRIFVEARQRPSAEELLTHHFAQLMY
The data set can be described thus: Inhibition of human MAP3K3 in HL-60 cells lysate assessed as reduction of labeling of acyl-phosphate ATP probe at 100 nM. The data set is classed as cell-free.

For data set [5], the system named is HL-60. The data set can be described thus: Inhibition of human CDK11/CDK8 in HL-60 cells lysate assessed as reduction of labeling of acyl-phosphate ATP probe at 100 nM.
For data set [6], the system named is HL-60. The data set can be described thus: Inhibition of human MST3/MST4/YSK1 in HL-60 cells lysate assessed as reduction of labeling of acyl-phosphate ATP probe at 100 nM.
For data set [7], the target named is Mitogen-activated protein kinase 3 (Homo sapiens) (UniProt P27361). The data set can be described thus: Inhibition of human Erk1 in HL-60 cells lysate assessed as reduction of labeling of acyl-phosphate ATP probe at 100 nM. The data set is classed as cell-free.
Mitogen-activated protein kinase 3 (Homo sapiens), sequence (P27361 whole entry): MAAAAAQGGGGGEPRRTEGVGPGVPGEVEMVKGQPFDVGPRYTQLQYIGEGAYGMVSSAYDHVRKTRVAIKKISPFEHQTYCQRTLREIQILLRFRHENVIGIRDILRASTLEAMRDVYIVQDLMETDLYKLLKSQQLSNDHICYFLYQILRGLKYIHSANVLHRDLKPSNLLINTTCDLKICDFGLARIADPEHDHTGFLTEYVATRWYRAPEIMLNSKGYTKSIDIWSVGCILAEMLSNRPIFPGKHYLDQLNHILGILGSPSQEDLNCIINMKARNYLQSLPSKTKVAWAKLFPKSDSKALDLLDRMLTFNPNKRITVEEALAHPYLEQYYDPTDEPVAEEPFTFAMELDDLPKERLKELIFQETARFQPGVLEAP
Data set [8] deals with HL-60. The data set can be described thus: Inhibition of human KSR1/KSR2 in HL-60 cells lysate assessed as reduction of labeling of acyl-phosphate ATP probe at 100 nM.
Data set [9] addresses Cyclin-dependent kinase 5 (Homo sapiens) (UniProt Q00535). The data set can be described thus: Inhibition of human CDK5 in HL-60 cells lysate assessed as reduction of labeling of acyl-phosphate ATP probe at 100 nM. The data set is classed as cell-free.
Data set [10] deals with PI4KA/PI4KAP2 (Homo sapiens) (UniProt P42356+A4QPH2). The data set can be described thus: Inhibition of human PI4KA/PI4KAP2 in HL-60 cells lysate assessed as reduction of labeling of acyl-phosphate ATP probe at 100 nM. The format is cell-free.
PI4KA/PI4KAP2 (Homo sapiens), sequence (A4QPH2 whole entry, looked up): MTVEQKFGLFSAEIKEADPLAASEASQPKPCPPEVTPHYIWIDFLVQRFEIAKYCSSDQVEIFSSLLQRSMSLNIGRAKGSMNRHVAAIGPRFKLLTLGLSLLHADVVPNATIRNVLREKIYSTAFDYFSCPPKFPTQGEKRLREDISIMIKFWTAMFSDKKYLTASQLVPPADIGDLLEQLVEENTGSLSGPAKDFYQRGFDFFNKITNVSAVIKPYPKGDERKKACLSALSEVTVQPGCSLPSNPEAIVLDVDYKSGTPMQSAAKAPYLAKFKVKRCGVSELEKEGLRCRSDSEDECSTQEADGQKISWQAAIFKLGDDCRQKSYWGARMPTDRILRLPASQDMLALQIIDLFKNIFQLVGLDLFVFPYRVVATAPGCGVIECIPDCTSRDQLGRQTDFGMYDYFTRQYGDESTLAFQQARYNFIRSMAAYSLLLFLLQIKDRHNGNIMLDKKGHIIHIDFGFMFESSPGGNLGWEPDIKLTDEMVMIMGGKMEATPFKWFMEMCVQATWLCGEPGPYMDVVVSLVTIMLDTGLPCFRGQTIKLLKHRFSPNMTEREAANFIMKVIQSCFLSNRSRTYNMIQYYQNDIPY
PI4KA/PI4KAP2 (Homo sapiens), sequence (P42356 whole entry, looked up): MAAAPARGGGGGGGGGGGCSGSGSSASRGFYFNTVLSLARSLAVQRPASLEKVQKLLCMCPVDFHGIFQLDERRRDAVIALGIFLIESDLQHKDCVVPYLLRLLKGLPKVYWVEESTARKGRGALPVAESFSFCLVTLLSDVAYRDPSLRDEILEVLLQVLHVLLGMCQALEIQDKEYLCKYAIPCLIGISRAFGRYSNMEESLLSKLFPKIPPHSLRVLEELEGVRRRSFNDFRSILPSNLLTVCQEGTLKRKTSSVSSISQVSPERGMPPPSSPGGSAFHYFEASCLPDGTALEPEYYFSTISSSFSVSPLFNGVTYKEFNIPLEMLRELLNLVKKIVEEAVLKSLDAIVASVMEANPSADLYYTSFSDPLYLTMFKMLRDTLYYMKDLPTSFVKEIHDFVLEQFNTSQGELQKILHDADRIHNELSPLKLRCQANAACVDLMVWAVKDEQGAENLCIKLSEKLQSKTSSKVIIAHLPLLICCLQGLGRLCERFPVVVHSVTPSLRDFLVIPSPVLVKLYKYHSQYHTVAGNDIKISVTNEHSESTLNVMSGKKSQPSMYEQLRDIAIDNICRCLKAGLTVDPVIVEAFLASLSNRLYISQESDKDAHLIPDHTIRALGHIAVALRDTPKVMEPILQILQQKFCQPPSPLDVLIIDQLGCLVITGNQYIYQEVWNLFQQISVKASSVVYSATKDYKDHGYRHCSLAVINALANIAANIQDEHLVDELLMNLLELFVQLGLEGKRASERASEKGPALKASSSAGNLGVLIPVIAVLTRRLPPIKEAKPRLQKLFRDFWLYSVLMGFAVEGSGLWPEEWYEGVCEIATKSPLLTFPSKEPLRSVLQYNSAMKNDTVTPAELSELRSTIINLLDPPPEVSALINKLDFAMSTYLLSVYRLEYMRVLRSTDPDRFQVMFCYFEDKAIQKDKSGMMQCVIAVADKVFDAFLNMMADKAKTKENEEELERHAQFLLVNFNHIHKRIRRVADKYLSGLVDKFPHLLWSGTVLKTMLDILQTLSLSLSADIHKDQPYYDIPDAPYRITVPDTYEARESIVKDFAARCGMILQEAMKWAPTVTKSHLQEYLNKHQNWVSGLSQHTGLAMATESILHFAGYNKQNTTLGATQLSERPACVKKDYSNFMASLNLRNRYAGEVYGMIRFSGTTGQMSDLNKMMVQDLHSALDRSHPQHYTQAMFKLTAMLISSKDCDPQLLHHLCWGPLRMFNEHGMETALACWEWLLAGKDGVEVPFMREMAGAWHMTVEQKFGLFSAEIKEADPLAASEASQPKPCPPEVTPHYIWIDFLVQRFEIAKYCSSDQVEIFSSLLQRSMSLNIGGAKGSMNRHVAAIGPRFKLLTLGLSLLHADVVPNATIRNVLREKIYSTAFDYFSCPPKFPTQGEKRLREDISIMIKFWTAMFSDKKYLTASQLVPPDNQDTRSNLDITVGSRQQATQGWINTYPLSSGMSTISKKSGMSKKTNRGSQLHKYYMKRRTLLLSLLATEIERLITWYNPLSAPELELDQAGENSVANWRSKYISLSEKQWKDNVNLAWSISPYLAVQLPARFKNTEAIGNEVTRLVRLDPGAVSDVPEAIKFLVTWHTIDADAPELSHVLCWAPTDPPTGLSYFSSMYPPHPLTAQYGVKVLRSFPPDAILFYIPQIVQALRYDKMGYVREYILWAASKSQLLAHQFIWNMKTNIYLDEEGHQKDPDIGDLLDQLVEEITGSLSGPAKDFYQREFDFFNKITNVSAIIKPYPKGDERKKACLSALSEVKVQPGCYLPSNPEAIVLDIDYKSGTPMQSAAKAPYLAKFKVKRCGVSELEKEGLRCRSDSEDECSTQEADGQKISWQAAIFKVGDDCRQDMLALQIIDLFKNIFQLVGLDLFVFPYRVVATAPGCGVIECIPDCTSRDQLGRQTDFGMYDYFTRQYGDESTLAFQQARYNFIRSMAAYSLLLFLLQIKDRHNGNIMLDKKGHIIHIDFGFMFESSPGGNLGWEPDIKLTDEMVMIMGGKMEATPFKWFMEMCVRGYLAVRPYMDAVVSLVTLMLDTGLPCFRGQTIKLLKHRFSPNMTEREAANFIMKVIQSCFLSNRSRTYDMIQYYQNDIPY
Data set [11] has as its system HL-60. The data set can be described thus: Inhibition of human MST4/YSK1 in HL-60 cells lysate assessed as reduction of labeling of acyl-phosphate ATP probe at 100 nM.
The target in data set [12] is Calcium/calmodulin-dependent protein kinase kinase 2 (Homo sapiens) (UniProt Q96RR4). The data set can be described thus: Inhibition of human CaMKK2 in HL-60 cells lysate assessed as reduction of labeling of acyl-phosphate ATP probe at 100 nM. The data set is classed as cell-free.
The target of data set [13] is T3, Phosphatidylinositol 5-phosphate 4-kinase type-2 beta (Homo sapiens) (UniProt P78356).
T3 sequence (whole entry): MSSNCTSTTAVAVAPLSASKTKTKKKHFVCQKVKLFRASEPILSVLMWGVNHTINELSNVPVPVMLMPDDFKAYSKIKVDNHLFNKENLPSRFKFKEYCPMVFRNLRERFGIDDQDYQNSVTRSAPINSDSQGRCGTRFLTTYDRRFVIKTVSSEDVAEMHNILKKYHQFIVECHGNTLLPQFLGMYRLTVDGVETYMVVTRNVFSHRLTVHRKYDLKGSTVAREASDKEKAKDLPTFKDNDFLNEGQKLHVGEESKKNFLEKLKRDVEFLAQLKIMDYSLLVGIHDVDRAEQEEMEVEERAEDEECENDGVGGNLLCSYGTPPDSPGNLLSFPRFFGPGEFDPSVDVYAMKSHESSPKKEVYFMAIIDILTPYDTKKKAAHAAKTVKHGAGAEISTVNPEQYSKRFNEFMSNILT
The data set can be described thus: Inhibition of human PIP4K2B in HL-60 cells lysate assessed as reduction of labeling of acyl-phosphate ATP probe at 100 nM. The data set is classed as cell-free.

For the next data set, the system named is Escherichia coli. The data set can be described thus: Antibacterial activity against Escherichia coli ATCC 8739. The data set is classed as ADME, organism-based.
In data set [14] the target is Misshapen-like kinase 1 (Homo sapiens) (UniProt Q8N4C8). The data set can be described thus: Inhibition of human ZC3/MINK in HL-60 cells lysate assessed as reduction of labeling of acyl-phosphate ATP probe at 100 nM. The format is cell-free.
Misshapen-like kinase 1 (Homo sapiens), sequence (Q8N4C8 whole entry, looked up): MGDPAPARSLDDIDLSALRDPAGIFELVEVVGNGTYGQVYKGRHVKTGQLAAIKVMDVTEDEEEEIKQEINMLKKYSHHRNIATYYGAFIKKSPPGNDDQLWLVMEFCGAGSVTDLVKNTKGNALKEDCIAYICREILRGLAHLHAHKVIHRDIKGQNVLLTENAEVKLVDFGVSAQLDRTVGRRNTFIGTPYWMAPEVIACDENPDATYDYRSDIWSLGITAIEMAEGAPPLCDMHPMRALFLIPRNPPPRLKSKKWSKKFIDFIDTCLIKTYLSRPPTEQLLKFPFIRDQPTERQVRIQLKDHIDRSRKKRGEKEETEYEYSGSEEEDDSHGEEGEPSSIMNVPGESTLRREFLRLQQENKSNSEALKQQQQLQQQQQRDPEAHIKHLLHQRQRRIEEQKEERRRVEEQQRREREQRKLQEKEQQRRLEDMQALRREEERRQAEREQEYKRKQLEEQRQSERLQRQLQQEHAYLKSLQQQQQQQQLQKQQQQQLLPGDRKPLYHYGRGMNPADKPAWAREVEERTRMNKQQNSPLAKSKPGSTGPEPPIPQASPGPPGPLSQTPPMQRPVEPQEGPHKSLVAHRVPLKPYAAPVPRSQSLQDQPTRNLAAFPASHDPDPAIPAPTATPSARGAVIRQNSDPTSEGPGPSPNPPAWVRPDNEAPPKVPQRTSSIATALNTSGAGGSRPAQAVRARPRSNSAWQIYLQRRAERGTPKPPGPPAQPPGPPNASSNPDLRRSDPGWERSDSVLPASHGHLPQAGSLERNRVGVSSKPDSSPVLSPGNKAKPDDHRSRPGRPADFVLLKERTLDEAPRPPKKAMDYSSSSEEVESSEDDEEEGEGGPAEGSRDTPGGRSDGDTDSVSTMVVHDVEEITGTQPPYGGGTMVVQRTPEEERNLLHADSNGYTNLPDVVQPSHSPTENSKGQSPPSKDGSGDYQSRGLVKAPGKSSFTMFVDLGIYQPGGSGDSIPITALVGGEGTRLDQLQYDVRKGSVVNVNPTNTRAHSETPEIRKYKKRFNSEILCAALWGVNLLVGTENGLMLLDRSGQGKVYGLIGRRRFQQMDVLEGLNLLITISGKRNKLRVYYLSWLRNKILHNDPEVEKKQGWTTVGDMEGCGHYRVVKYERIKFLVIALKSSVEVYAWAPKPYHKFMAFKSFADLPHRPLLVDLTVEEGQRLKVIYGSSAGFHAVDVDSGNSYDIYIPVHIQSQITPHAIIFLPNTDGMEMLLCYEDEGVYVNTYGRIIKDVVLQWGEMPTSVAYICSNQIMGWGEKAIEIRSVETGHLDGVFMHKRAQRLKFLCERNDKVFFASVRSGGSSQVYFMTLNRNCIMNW

Molecules are shown by their SMILES. Converted amounts (≈) assume the structure as drawn.

Cyclin-dependent kinase 5 (Homo sapiens), sequence (Q00535 whole entry, looked up): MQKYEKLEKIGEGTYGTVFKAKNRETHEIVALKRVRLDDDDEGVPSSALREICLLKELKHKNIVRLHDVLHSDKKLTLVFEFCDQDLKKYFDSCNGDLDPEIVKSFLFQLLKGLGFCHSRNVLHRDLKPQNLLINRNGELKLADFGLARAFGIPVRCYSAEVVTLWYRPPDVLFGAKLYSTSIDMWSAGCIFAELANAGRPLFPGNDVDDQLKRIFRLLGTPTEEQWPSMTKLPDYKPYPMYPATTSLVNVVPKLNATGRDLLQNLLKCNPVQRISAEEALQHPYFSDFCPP

For orientation: inhibition means the drop in the measured response relative to a control, in per cent. In the case of `C[C@H]1COc2c(NCCCn3cccn3)c(F)c(N)c3c(=O)c(C#N)cn1c23`, the inhibition in [1], in data set [2], in [4], in [7], in [9] and in data set [10] was under 35% each time. The inhibition in data set [12], in [13] and in data set [14] was under 35% each time. Further, the inhibition at 0.1 µM in the data set on HL-60 [3], with HL-60 [5], with HL-60 [6], with HL-60 [8] and in the data set on HL-60 [11] was under 35% in each case. The MIC with Escherichia coli was over 306 µM.
`C[C@H]1COc2c(NCCCc3ccccn3)c(F)c(N)c3c(=O)c(C(=O)O)cn1c23`: the inhibition in [1], in [2], in [4], in data set [7], in data set [9] and in data set [10] was under 35% throughout. Besides, the inhibition in data set [12], in [13] and in [14] was under 35% each time. Further, the inhibition at 0.1 µM with HL-60 [3], in the data set with HL-60 [5], with HL-60 [6], with HL-60 [8] and in the data set with HL-60 [11] was under 35% in each case. In the data set on Escherichia coli, this molecule had an MIC of 19 µM (≈ 7.84 µg/mL).
Consider `C[C@H]1COc2c(NCCCn3cccn3)c(F)c(N)c3c(=O)c(C(=O)O)cn1c23`, for which the inhibition in [1], in data set [2], in data set [4], in data set [7], in data set [9] and in data set [10] was under 35% throughout. In addition, the inhibition in data set [12], in data set [13] and in data set [14] was under 35% throughout. Also, the inhibition at 0.1 µM in the data set with HL-60 [3], in the data set on HL-60 [5], in the data set with HL-60 [6], in the data set with HL-60 [8] and in the data set with HL-60 [11] was under 35% each time. This molecule gave an MIC against Escherichia coli of 20 µM (≈ 8.03 µg/mL).
Consider `C[C@H]1COc2c(NCCCc3ccccn3)c(F)c(N)c3c(=O)c(C#N)cn1c23`, for which the inhibition in data set [1], in data set [2], in [4], in data set [7], in [9] and in data set [10] was under 35% throughout. The inhibition in data set [12], in data set [13] and in [14] was under 35% in each case. The inhibition at 0.1 µM with HL-60 [3], in the data set on HL-60 [5], in the data set on HL-60 [6], in the data set on HL-60 [8] and with HL-60 [11] was under 35% in each case. The MIC in the data set on Escherichia coli is over 298 µM.
